The supplement of paper PMC11061612

What was measured:
[1] = compound: Cc1cc2ncnn2cc1Nc1ncc2c(n1)n(C1CCOCC1)c(=O)n2C [AZD7648]; conditions: max 10 µM
Method in brief: (§1)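 Cancer cell lines were dosed for 72 hours (final DMSO typically 0.2%) after 24 hours at 37°C and 5% CO2 in 1536-well plates containing 7.5 μl DMEM/F12 or RPMI with 10% FBS. Viability came from CellTiter-Glo 2.0 luminescence, scaled between blank-well and DMSO-well means, and dose responses were fitted to a two-parameter logistic curve with a non-linear mixed effects model. The single-agent IC50 was obtained from this fit.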

[2] = compound: CC(C)n1c(=O)n(C)c2cnc3cc(F)c(-c4ccc(OCCCN5CCCCC5)nc4)cc3c21 [AZD1390]; conditions: max 0.3 µM
Method in brief: as §1

[3] = compound: CC1=C(C(=CC=C1)Cl)NC(=O)C2=CN=C(S2)NC3=CC(=NC(=N3)C)N4CCN(CC4)CCO [Dasatinib]; conditions: max 2 µM
Method in brief: as §1

[4] = compound: COc1nnc2ccc(N3CCC(c4ccc(OCCN5CCN(C)C(=O)[C@H]5C)cc4)CC3)nn12 [AZD5153]; conditions: max 1 µM
Method in brief: as §1

[5] = compound: COc1cccc(OCCCN)c1-c1cc(Nc2cnc(C#N)cn2)n[nH]1 [Prexasertib]; conditions: max 1 µM
Method in brief: as §1

[6] = compound: CN(C)CCCOc1ccc(-c2ccc3ncc4c(c3c2)n(C2CCOCC2)c(=O)n4C)cn1 [AZD0156]
Method in brief: as §1

[7] = compound: COc1cc2ncnc(Nc3ccc(F)c(Cl)c3)c2cc1OCCCN1CCOCC1 [Gefitinib]; conditions: max 10 µM
Method in brief: as §1

[8] = compound: CCN(CCO)CCCOc1ccc2c(Nc3cc(CC(=O)Nc4cccc(F)c4)[nH]n3)ncnc2c1 [AZD2811]; conditions: max 1 µM
Method in brief: as §1

[9] = compound: Cn1cnc2c(F)c(Nc3ccc(Br)cc3Cl)c(C(=O)NOCCO)cc21 [Selumetinib]
Method in brief: as §1

[10] = compound: CS(=O)(=O)CCNCc1ccc(-c2ccc3ncnc(Nc4ccc(OCc5cccc(F)c5)c(Cl)c4)c3c2)o1 [Lapatinib]; conditions: max 10 µM
Method in brief: as §1

[11] = compound: CC(=O)Nc1cccc(-n2c(=O)n(C3CC3)c(=O)c3c(Nc4ccc(I)cc4F)n(C)c(=O)c(C)c32)c1 [Trametinib]; conditions: max 1 µM
Method in brief: as §1

[12] = compound: C=CCn1c(=O)c2cnc(Nc3ccc(N4CCN(C)CC4)cc3)nc2n1-c1cccc(C(C)(C)O)n1 [AZD1775]
Method in brief: as §1

[13] = compound: C1CN(CCC1(C(=O)N[C@@H](CCO)C2=CC=C(C=C2)Cl)N)C3=NC=NC4=C3C=CN4 [Capivasertib]
Method in brief: as §1

[14] = compound: CN(CC[C@H](CSC1=CC=CC=C1)NC2=C(C=C(C=C2)S(=O)(=O)NC(=O)C3=CC=C(C=C3)N4CCC(CC4)[C@H](C5=CC=CC=C5C6=CC=C(C=C6)Cl)O)S(=O)(=O)C(F)(F)F)CCO [AZD4320]; conditions: max 1 µM
Method in brief: as §1

[15] = compound: COc1cccc2c1C(=O)c1c(O)c3c(c(O)c1C2=O)C[C@@](O)(C(=O)CO)C[C@@H]3O[C@H]1C[C@H](N)[C@H](O)[C@H](C)O1 [Doxorubicin]; conditions: max 1 µM
Method in brief: as §1

[16] = compound: COc1cc(Nc2ncc3c(n2)-c2ccc(Cl)cc2C(c2c(F)cccc2OC)=NC3)ccc1C(=O)O [Alisertib]; conditions: max 10 µM
Method in brief: as §1

[17] = compound: C[C@@H](Oc1cc(-c2cnn(C3CCNCC3)c2)cnc1N)c1c(Cl)ccc(F)c1Cl [Crizotinib]; conditions: max 10 µM
Method in brief: as §1

[18] = compound: C[C@@H](Nc1cc(F)cc(F)c1)c1cc(C(=O)N(C)C)cc2c(=O)cc(N3CCOCC3)oc12 [AZD8186]
Method in brief: as §1

[19] = compound: O=C(c1cc(Cc2n[nH]c(=O)c3ccccc23)ccc1F)N1CCN(C(=O)C2CC2)CC1 [Olaparib]; conditions: max 10 µM
Method in brief: as §1

[20] = compound: CCc1c2c(nc3ccc(O)cc13)-c1cc3c(c(=O)n1C2)COC(=O)[C@]3(O)CC [SN-38]; conditions: max 0.3 µM
Method in brief: as §1

[21] = compound: CC1=CN2[C@@H](C1)C=NC3=CC(=C(C=C3C2=O)OC)OCCCCCOC4=C(C=C5C(=C4)N=C[C@@H]6CC(=CN6C5=O)C)OC [SG3199]; conditions: max 0.001 µM
Method in brief: as §1

[22] = compound: Cc1c2c(nn1C)CSCc1cc(n(C)n1)CSc1cc(c3ccccc3c1)OCCCc1c(C(=O)O)n(C)c3c-2c(Cl)ccc13 [AZD5991]; conditions: max 1 µM
Method in brief: as §1

[23] = compound: C[C@@H](c1ccc2nccn2c1)n1nnc2ncc(-c3cnn(C)c3)nc21 [Savolitinib]; conditions: max 1 µM
Method in brief: as §1

[24] = compound: CC(=O)c1c(C)c2cnc(Nc3ccc(N4CCNCC4)cn3)nc2n(C2CCCC2)c1=O [Palbociclib]; conditions: max 10 µM
Method in brief: as §1

[25] = compound: CC1(C)CCC(CN2CCN(c3ccc(C(=O)NS(=O)(=O)c4ccc(NCC5CCOCC5)c([N+](=O)[O-])c4)c(Oc4cnc5[nH]ccc5c4)c3)CC2)=C(c2ccc(Cl)cc2)C1 [Venetoclax]; conditions: max 1 µM
Method in brief: as §1

[26] = compound: Cc1nc(-c2cn3c(n2)-c2ccc(-c4cnn(C(C)(C)C(N)=O)c4)cc2OCC3)n(C(C)C)n1 [Taselisib]; conditions: max 10 µM
Method in brief: as §1

[27] = compound: C[C@@H]1COCCN1C2=NC(=NC(=C2)C3(CC3)[S@](=N)(=O)C)C4=C5C=CNC5=NC=C4 [AZD6738]; conditions: max 10 µM
Method in brief: as §1

[28] = compound: O=c1[nH]cc(F)c(=O)[nH]1 [5-Fluorouracil]; conditions: max 20 µM
Method in brief: as §1

[29] = compound: C1CC(C1)(C(=O)[O-])C(=O)[O-].N.N.[Pt+2] [Carboplatin]; conditions: max 10 µM
Method in brief: as §1

[30] = compound: Nc1ccn([C@@H]2O[C@H](CO)[C@@H](O)C2(F)F)c(=O)n1 [Gemcitabine]; conditions: max 0.3 µM
Method in brief: as §1

[31] = compound: C1CN(CCC1(C(=O)N[C@@H](CCO)C2=CC=C(C=C2)Cl)N)C3=NC=NC4=C3C=CN4 [AZD5363]; conditions: max 10 µM
Method in brief: as §1

[32] = compound: NC1(c2ccc(-c3nc4ccn5c(=O)[nH]nc5c4cc3-c3ccccc3)cc2)CCC1 [MK-2206]; conditions: max 10 µM
Method in brief: as §1

[33] = compound: COc1cc([C@@H]2c3cc4c(cc3[C@@H](O[C@@H]3O[C@@H]5CO[C@@H](C)O[C@H]5[C@H](O)[C@H]3O)[C@H]3COC(=O)[C@H]23)OCO4)cc(OC)c1O [Etoposide]; conditions: max 10 µM
Method in brief: as §1

[34] = compound: N#Cc1cnc(Nc2cc(NC[C@H]3CNCCO3)c(C(F)(F)F)cn2)cn1 [SRA737]; conditions: max 10 µM
Method in brief: as §1

[35] = compound: O=C(Nc1ccc2[nH]nc(-c3ccncc3)c2c1)[C@@H]1CCN(CC(=O)N2CCN(c3ccc(-c4ncccn4)cc3)CC2)C1; conditions: max 5 µM
Method in brief: as §1

[36] = compound: CC(=O)O[C@H]1C(=O)[C@@]2(C)[C@H]([C@H](OC(=O)c3ccccc3)[C@]3(O)C[C@H](OC(=O)[C@H](O)[C@@H](NC(=O)c4ccccc4)c4ccccc4)C(C)=C1C3(C)C)[C@]1(OC(C)=O)CO[C@@H]1C[C@@H]2O [Paclitaxel]; conditions: max 3 µM
Method in brief: as §1

Cell Line	IC50, cell viability 72 h [1]	IC50, cell viability 72 h [2]	IC50, cell viability 72 h [3]	IC50, cell viability 72 h [4]	IC50, cell viability 72 h [5]	IC50, cell viability 72 h [7]	IC50, cell viability 72 h [8]	IC50, cell viability 72 h ([9]; max 10 µM)	IC50, cell viability 72 h [10]	IC50, cell viability 72 h [11]	IC50, cell viability 72 h [14]	IC50, cell viability 72 h [15]	IC50, cell viability 72 h [16]	IC50, cell viability 72 h [19]	IC50, cell viability 72 h [20]	IC50, cell viability 72 h [21]	IC50, cell viability 72 h [22]	IC50, cell viability 72 h [25]	IC50, cell viability 72 h [26]	IC50, cell viability 72 h [27]	further results
647-V (Bladder Carcinoma)	> 10 µM	> 0.3 µM	> 2 µM	> 1 µM	0.174 µM	> 10 µM	> 1 µM	> 10 µM	> 10 µM	> 1 µM	> 1 µM	0.24 µM	> 10 µM	> 10 µM	0.00235 µM	> 0.001 µM	0.961 µM	> 1 µM	> 10 µM	> 10 µM	IC50, cell viability 72 h ([6]; max 3 µM): > 3 µM; IC50, cell viability 72 h ([12]; max 3 µM): 0.812 µM; IC50, cell viability 72 h ([13]; max 10 µM): > 10 µM; IC50, cell viability 72 h [17]: > 10 µM; IC50, cell viability 72 h ([18]; max 3 µM): > 3 µM; IC50, cell viability 72 h [23]: > 1 µM; IC50, cell viability 72 h [24]: > 10 µM
A172 (Glioblastoma)	> 10 µM	> 0.3 µM	> 2 µM	> 1 µM	0.367 µM	> 10 µM	0.708 µM	> 10 µM	> 10 µM	> 1 µM	> 1 µM	0.189 µM	1.42 µM	> 10 µM	0.0441 µM	> 0.001 µM	> 1 µM	> 1 µM	> 10 µM	9.49 µM	IC50, cell viability 72 h ([6]; max 3 µM): > 3 µM; IC50, cell viability 72 h ([12]; max 3 µM): > 3 µM; IC50, cell viability 72 h ([13]; max 10 µM): > 10 µM; IC50, cell viability 72 h [17]: > 10 µM; IC50, cell viability 72 h ([18]; max 3 µM): > 3 µM; IC50, cell viability 72 h [23]: > 1 µM; IC50, cell viability 72 h [24]: > 10 µM
EKVX (Non-Small Cell Lung Carcinoma)	> 10 µM				> 1 µM		> 1 µM			0.747 µM	> 1 µM	> 1 µM	> 10 µM	> 10 µM	> 0.3 µM	> 0.001 µM	> 1 µM	> 1 µM	> 10 µM	> 10 µM	IC50, cell viability 72 h ([6]; max 1 µM): > 1 µM; IC50, cell viability 72 h ([9]; max 3 µM): > 3 µM; IC50, cell viability 72 h ([12]; max 1 µM): > 1 µM; IC50, cell viability 72 h ([13]; max 3 µM): > 3 µM; IC50, cell viability 72 h ([18]; max 3 µM): > 3 µM
SNG-M (Endometrial Carcinoma)	> 10 µM	> 0.3 µM	0.259 µM	> 1 µM	0.0231 µM	> 10 µM	> 1 µM	> 10 µM	> 10 µM	> 1 µM	> 1 µM	> 1 µM	2.44 µM	> 10 µM	0.153 µM	> 0.001 µM	> 1 µM	> 1 µM	3.82 µM	1.31 µM	IC50, cell viability 72 h [28]: > 20 µM; IC50, cell viability 72 h ([6]; max 3 µM): > 3 µM; IC50, cell viability 72 h [29]: > 10 µM; IC50, cell viability 72 h ([12]; max 3 µM): 0.874 µM; IC50, cell viability 72 h [30]: 0.033 µM; IC50, cell viability 72 h [31]: > 10 µM; IC50, cell viability 72 h [17]: > 10 µM; IC50, cell viability 72 h ([18]; max 10 µM): > 10 µM; IC50, cell viability 72 h [32]: > 10 µM; IC50, cell viability 72 h [23]: > 1 µM; IC50, cell viability 72 h [33]: > 10 µM; IC50, cell viability 72 h [24]: > 10 µM; IC50, cell viability 72 h [34]: 5.19 µM; IC50, cell viability 72 h [35]: > 5 µM; IC50, cell viability 72 h [36]: 0.00687 µM
SW48 (Colorectal Carcinoma)	> 10 µM	> 0.3 µM	> 2 µM	0.254 µM	0.117 µM	> 10 µM	0.0239 µM	> 10 µM	8.92 µM	0.123 µM	> 1 µM	0.0686 µM	0.0584 µM	> 10 µM	0.0133 µM	> 0.001 µM	> 1 µM	> 1 µM	2.37 µM	7.01 µM	IC50, cell viability 72 h [28]: > 20 µM; IC50, cell viability 72 h ([6]; max 1 µM): > 1 µM; IC50, cell viability 72 h [29]: > 10 µM; IC50, cell viability 72 h ([12]; max 1 µM): > 1 µM; IC50, cell viability 72 h [30]: 0.0926 µM; IC50, cell viability 72 h [31]: > 10 µM; IC50, cell viability 72 h [17]: 3.36 µM; IC50, cell viability 72 h ([18]; max 10 µM): > 10 µM; IC50, cell viability 72 h [32]: > 10 µM; IC50, cell viability 72 h [23]: > 1 µM; IC50, cell viability 72 h [33]: 0.517 µM; IC50, cell viability 72 h [24]: > 10 µM; IC50, cell viability 72 h [34]: > 10 µM; IC50, cell viability 72 h [35]: 1.33 µM; IC50, cell viability 72 h [36]: 0.00337 µM
